From ChEMBL document CHEMBL4190307, “Design, synthesis and biological evaluation of novel coumarin-N-benzyl pyridinium hybrids as multi-target agents for the treatment of Alzheimer's disease” (Eur J Med Chem, 2017)
Calls of active or inactive are those of the source. No cut-off for these calls is given here.

Assays:
Cholinesterase [1] = target: Cholinesterase (Equus caballus, UniProt P81908); assay: Inhibition of equine serum BuChE using S-butyrylthiocholine iodide as substrate preincubated for 6 mins followed by substrate addition measured up to 180 secs by Ellman's method
Cholinesterase (Equus caballus, UniProt P81908), sequence (P81908 whole entry): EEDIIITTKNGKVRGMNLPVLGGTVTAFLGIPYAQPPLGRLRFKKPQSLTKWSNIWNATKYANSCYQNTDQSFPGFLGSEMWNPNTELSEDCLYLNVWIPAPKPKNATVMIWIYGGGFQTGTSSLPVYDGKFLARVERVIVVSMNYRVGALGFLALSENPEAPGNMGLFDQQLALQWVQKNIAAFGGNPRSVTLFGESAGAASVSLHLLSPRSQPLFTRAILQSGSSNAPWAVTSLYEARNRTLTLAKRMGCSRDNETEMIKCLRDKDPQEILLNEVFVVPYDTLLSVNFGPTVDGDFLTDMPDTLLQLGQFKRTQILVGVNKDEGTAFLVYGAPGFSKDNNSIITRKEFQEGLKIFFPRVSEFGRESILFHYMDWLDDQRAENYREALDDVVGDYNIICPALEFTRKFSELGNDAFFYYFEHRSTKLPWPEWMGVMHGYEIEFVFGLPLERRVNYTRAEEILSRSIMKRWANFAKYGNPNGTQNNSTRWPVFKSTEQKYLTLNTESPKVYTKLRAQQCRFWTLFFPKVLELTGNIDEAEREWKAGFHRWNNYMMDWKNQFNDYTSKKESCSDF

[2] = target: Amyloid-beta precursor protein (Homo sapiens) (UniProt P05067); assay: Inhibition of self-induced amyloid beta (1 to 42) (unknown origin) aggregation at 20 uM after 46 to 48 hrs by thioflavin T-based fluorescence assay relative to control
Amyloid-beta precursor protein (Homo sapiens), sequence (P05067 whole entry): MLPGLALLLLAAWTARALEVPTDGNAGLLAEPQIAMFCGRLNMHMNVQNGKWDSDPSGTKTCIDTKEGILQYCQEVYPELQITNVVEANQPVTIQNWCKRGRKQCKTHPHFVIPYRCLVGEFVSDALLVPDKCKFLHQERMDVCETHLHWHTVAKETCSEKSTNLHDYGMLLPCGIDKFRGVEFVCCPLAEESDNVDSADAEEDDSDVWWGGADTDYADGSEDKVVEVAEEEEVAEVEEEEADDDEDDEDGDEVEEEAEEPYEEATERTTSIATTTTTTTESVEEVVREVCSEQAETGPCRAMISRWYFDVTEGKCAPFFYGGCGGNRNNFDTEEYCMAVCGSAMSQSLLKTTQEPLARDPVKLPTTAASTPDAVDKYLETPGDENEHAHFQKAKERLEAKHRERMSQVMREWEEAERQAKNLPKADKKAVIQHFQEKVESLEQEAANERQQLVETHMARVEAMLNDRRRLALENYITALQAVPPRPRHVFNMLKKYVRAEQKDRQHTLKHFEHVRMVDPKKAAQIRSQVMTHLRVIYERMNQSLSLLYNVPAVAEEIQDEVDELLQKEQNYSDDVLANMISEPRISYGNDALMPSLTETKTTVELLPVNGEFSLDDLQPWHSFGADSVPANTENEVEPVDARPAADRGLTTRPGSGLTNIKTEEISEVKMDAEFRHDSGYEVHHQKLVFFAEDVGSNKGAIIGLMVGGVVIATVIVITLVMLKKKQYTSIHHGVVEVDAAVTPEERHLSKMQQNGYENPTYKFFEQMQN

[3] = target: Acetylcholinesterase (Electrophorus electricus) (UniProt O42275); assay: Potency index, ratio of IC50 for donepezil to IC50 for test compound for inhibition of electric eel AChE using acetylthiocholine iodide as substrate preincubated for 6 mins followed by substrate addition measured up to 180 secs by Ellman's method
Acetylcholinesterase (Electrophorus electricus), sequence (O42275 24-633 limits assumed): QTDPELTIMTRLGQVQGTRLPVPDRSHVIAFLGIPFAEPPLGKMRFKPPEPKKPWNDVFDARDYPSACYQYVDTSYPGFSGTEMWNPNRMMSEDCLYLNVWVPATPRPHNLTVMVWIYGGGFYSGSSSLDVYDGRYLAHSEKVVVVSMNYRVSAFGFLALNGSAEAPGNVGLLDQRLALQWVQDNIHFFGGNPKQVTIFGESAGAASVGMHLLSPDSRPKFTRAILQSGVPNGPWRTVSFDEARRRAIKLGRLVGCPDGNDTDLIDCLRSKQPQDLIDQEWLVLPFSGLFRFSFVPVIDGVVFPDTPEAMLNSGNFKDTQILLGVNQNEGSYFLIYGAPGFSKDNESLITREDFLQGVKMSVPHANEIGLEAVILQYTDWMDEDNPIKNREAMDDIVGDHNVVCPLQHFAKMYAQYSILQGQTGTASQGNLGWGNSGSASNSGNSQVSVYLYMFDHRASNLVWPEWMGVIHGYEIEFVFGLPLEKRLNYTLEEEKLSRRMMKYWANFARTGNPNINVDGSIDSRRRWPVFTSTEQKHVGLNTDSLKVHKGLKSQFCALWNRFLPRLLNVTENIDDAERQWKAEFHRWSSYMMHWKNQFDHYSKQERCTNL

PC-12 = assay: Cytotoxicity against rat PC12 cells assessed as reduction in cell viability at 100 uM after 24 hrs by MTT assay relative to control; assay type: cell-based; conditions: pc-12, 24 h
[4] = target: T1, Amine oxidase [flavin-containing] B (Homo sapiens, UniProt P27338)
T1 sequence (P27338 whole entry): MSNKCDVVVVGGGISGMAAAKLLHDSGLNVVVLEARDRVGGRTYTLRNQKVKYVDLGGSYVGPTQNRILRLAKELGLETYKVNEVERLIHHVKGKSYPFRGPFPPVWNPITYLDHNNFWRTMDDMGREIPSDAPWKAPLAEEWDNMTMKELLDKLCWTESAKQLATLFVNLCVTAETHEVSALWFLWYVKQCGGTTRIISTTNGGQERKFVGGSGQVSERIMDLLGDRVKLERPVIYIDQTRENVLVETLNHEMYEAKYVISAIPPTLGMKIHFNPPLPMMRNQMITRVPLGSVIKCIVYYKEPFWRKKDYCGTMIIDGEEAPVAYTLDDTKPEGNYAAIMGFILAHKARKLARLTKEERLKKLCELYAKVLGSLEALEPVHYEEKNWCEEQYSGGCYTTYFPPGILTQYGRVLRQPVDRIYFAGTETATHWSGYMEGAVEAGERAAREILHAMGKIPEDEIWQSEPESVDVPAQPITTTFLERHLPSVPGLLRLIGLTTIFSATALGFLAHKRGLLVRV
Description: Inhibition of recombinant human MAOB using p-tyramine as substrate after 15 mins by Amplex Red dye-based fluorometric method

Acetylcholinesterase [5] = target: Acetylcholinesterase (Electrophorus electricus, UniProt O42275); assay: Inhibition of electric eel AChE using acetylthiocholine iodide as substrate preincubated for 6 mins followed by substrate addition measured up to 180 secs by Ellman's method
Acetylcholinesterase (Electrophorus electricus, UniProt O42275), sequence (O42275 whole entry): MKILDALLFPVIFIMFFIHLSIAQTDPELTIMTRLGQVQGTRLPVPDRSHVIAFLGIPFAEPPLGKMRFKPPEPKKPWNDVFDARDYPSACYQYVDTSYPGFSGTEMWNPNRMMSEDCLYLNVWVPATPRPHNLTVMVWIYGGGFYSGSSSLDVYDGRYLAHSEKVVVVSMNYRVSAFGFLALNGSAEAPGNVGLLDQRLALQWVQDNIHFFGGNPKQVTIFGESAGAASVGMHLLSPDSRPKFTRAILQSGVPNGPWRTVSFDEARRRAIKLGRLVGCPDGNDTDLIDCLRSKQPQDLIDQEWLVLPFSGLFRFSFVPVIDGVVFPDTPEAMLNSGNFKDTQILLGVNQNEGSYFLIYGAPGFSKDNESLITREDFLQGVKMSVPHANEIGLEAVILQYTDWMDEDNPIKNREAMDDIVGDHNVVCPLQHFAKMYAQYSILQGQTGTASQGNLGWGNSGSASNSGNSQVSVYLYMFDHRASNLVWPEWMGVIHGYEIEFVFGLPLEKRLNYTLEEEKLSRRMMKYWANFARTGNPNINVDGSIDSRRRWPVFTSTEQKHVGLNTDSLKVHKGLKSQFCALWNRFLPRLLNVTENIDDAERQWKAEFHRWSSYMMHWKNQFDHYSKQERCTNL

Homo sapiens [6] = species: Homo sapiens; assay: Selectivity index, ratio of IC50 for human serum BuChE to IC50 for human AChE
Homo sapiens [7] = species: Homo sapiens; assay: Selectivity index, ratio of IC50 for recombinant human MAOA to IC50 for recombinant human MAOB
[8] = target: T2, Amine oxidase [flavin-containing] A (Homo sapiens, UniProt P21397); assay: Inhibition of recombinant human MAOA at 10 uM using p-tyramine as substrate after 15 mins by resorufin dye-based fluorometric method relative to control; conditions: 0.25 h
T2 sequence (P21397 whole entry): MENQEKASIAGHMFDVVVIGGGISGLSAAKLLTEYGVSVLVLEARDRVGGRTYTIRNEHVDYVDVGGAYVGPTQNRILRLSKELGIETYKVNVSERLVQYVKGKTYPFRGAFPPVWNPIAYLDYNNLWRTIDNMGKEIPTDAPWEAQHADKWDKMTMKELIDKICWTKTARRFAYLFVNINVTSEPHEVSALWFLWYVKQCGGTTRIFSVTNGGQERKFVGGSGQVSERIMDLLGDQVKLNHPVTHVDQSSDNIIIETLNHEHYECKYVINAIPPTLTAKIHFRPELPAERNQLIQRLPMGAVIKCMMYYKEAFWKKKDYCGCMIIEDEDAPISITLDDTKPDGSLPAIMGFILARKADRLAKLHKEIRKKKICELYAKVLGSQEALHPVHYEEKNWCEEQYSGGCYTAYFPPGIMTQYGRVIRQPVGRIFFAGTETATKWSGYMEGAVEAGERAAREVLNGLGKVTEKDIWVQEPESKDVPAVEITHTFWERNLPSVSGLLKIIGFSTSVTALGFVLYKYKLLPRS

Acetylcholinesterase [9] = target: Acetylcholinesterase (Homo sapiens, UniProt P22303); assay: Inhibition of human AChE using acetylthiocholine iodide as substrate preincubated for 6 mins followed by substrate addition measured up to 180 secs by Ellman's method
Acetylcholinesterase (Homo sapiens, UniProt P22303), sequence (P22303 whole entry): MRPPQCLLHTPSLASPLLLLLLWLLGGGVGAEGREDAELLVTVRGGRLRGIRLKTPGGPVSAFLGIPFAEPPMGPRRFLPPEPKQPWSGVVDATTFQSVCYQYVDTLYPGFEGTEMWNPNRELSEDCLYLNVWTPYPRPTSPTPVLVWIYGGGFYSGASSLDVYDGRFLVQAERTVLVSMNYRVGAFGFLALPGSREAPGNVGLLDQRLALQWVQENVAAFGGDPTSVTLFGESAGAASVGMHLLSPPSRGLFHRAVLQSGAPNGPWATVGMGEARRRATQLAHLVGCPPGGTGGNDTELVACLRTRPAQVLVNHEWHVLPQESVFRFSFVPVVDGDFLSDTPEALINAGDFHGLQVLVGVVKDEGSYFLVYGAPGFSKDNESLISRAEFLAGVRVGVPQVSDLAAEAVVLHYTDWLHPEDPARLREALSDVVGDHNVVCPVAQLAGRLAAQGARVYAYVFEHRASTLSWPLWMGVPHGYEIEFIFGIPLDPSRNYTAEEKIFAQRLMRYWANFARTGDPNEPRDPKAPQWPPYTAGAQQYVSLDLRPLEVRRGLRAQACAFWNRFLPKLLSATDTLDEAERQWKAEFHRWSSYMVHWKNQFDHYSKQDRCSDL

[10] = Selectivity index, ratio of IC50 for equine serum BuChE to IC50 for electric eel AChE
[11] = target: T1, Amine oxidase [flavin-containing] B; assay: Inhibition of recombinant human MAOB at 10 uM using p-tyramine as substrate after 15 mins by resorufin dye-based fluorometric method relative to control; conditions: 0.25 h
[12] = target: T1, Amine oxidase [flavin-containing] B; assay: Competitive inhibition of recombinant human MAOB up to 3 uM using p-tyramine as substrate after 15 mins by Lineweaver-burk plot method; conditions: 0.25 h
[13] = target: T1, Amine oxidase [flavin-containing] B; assay: Reversible inhibition of recombinant human MAO-B assessed as enzyme activity recovery at 10 times IC50 using p-tyramine as substrate preincubated for 30 mins followed by 100 fold compound dilution by Amplex Red dye-based fluorometric method relative to control; set-up: scale not given: the % may be the effect or the level left
[14] = target: T1, Amine oxidase [flavin-containing] B; assay: Reversible inhibition of recombinant human MAO-B assessed as enzyme activity recovery at 100 times IC50 using p-tyramine as substrate preincubated for 30 mins followed by 100 fold compound dilution by Amplex Red dye-based fluorometric method relative to control; set-up: scale not given: the % may be the effect or the level left
[15] = target: Acetylcholinesterase (Electrophorus electricus) (UniProt O42275); assay: Mixed type inhibition of electric eel AChE up to 80 nM using acetylthiocholine iodide as substrate preincubated for 6 mins followed by substrate addition measured up to 180 secs by Lineweaver-burk plot method
[16] = target: T2, Amine oxidase [flavin-containing] A; assay: Inhibition of recombinant human MAOA using p-tyramine as substrate after 15 mins by Amplex Red dye-based fluorometric method
Cholinesterase [17] = target: Cholinesterase (Homo sapiens, UniProt P06276)
Cholinesterase (Homo sapiens, UniProt P06276), sequence (P06276 whole entry): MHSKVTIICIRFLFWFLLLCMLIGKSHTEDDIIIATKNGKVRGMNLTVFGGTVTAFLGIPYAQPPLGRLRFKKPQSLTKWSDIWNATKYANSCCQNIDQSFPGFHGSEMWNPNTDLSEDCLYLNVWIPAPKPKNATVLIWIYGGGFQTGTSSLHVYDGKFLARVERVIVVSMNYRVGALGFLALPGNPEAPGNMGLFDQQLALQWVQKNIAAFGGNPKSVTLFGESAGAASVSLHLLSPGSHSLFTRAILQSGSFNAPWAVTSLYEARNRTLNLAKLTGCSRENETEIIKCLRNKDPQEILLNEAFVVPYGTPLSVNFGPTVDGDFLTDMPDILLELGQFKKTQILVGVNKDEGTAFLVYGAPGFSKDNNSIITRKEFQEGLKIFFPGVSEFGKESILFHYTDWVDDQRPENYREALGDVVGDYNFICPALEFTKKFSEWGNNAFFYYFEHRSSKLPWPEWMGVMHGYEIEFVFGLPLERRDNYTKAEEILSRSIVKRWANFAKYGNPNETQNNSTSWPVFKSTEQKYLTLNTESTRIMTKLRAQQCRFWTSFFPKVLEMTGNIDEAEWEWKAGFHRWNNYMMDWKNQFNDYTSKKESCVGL
Description: Inhibition of human serum BuChE using S-butyrylthiocholine iodide as substrate preincubated for 6 mins followed by substrate addition measured up to 180 secs by Ellman's method

Structure (SMILES)	IC50 (Cholinesterase [1]) [µM]	inhibition [2] [%]	Ratio IC50 [3]	Activity (PC-12) [%]	IC50 [4] [µM]	IC50 (Acetylcholinesterase [5]) [µM]	Ratio IC50 (Homo sapiens [6])	Ratio IC50 (Homo sapiens [7])	inhibition at 10 µM [8] [%]	IC50 (Acetylcholinesterase [9]) [µM]	Ratio IC50 [10]	inhibition at 10 µM [11] [%]	inhibition (INH) [12]	Activity [13] [%]	Activity [14] [%]	inhibition [15]	IC50 [16] [µM]	IC50 (Cholinesterase [17]) [µM]
Cc1ccccc1C[n+]1ccc(COc2ccc3c(C)cc(=O)oc3c2)cc1.[Br-]	1.61	55.2	1.9	97.1	3.16	0.0249	> 282	> 3.16	13.9	0.0354	64.7							
Cc1cc(=O)oc2cc(OCc3cc[n+](Cc4ccccc4)cc3)ccc12.[Br-]	4.24	39.3		97.5		0.38	> 28.4	6.92	5.04	0.352	11.2	34.9						
Cc1cc(=O)oc2cc(O)ccc12 [HYMECROMONE]	> 100					> 100												
Cc1cc(=O)oc2cc(OCc3cc[n+](Cc4cccc(Br)c4)cc3)ccc12.[Br-]	4.41	62.7		96.8	2.19	0.0632	> 77.8	> 4.56	44.6	0.129	69.8							
Cc1cc(=O)oc2cc(OCc3cc[n+](Cc4ccccc4F)cc3)ccc12.[Br-]	1.64	53.7		100.8	4.21	0.0295	> 153	> 2.37	11.5	0.0653	55.6							
Cc1cc(=O)oc2cc(OCc3cc[n+](Cc4cccc(F)c4)cc3)ccc12.[Br-]	2.74	50.8	1.9	99.6	2.87	0.0259	> 240	> 3.48	34.3	0.0416	106							
Cc1cccc(C[n+]2ccc(COc3ccc4c(C)cc(=O)oc4c3)cc2)c1.[Br-]	2.32	62.1		101.5	1.57	0.0373	> 120	> 6.37	14.8	0.0836	62.2		Active	86	47	Active		
Cc1cc(=O)oc2cc(OCc3cc[n+](Cc4ccc(F)cc4)cc3)ccc12.[Br-]	2.95	49.1		94.8	10	0.0291	> 271	0.46		0.0369	101						4.6	
Cc1cc(=O)oc2cc(OCc3cc[n+](Cc4cccc([N+](=O)[O-])c4)cc3)ccc12.[Br-]	4.37	42.8		98.4		0.0383				0.23								
Cc1cc(=O)oc2cc(OCc3cc[n+](Cc4ccc([N+](=O)[O-])cc4)cc3)ccc12.[Br-]		37.7		99.5	6.89	1.19	> 9.3	> 1.45	18.6	1.08	> 8.4							
Cc1cc(=O)oc2cc(OCc3cc[n+](Cc4ccccc4Br)cc3)ccc12.[Br-]	0.48	63.7		97.6	3.99	0.0367	106	> 2.5	15.1	0.0781	13.2							8.32
Cc1ccc(C[n+]2ccc(COc3ccc4c(C)cc(=O)oc4c3)cc2)cc1.[Br-]	7.66	58.5		99.4	3.9	0.136	> 40	> 2.56	9.05	0.25	56.3							
Cc1cc(=O)oc2cc(OCc3cc[n+](Cc4ccc(Br)cc4)cc3)ccc12.[Br-]	4.89	67.6		98.5	3.88	0.119	> 41.1	> 2.58	29.9	0.218	41.1							
